Measured values: US20090149417A1, “Methods and compositions for the treatment of cancer using benzopyrone-type PARP inhibitors” (priority 2007, published 2009)
Where two headings read alike, the source gives them in different places.

Columns and labels:
MDA-MB-231 = experiment: BrdU chemiluminescent cell proliferation assay; type: cell-based, human; settings: for IC50: Homo sapiens, MDA-MB-231, 72 h, 72 hour treatment
Description: (§1) Test Agents—Cells are treated 24 hours after plating (Day 1) with vehicle or test agents at concentrations of 0.1 μM, 0.3 μM, 1 μM, 3 μM, 10 μM, 30 μM and 100 μM.
(§2) Tumor Cell Lines—Tumor cell lines (Table 1) are obtained from the American Type Cell Collection (ATCC, Rockville, Md.) or NCI-DCTD Tumor Repository (Bethesda, Md.) and maintained in proper growth media supplemented with 10% fetal bovine serum (FBS, NovaTech), and are maintained in specified growth media. Cells are propagated at 37° C. in a humidified atmosphere containing 5% carbon dioxide.
(§3) Cell proliferation assay—Cell proliferation is determined using BrdU chemiluminescent assay, which measures incorporation of 5-bromo-2′-deoxyuridine (BrdU) into the genomic DNA of proliferating cells. Briefly, cells are added with BrdU for 4 hours, during which time it incorporates into the DNA of dividing cells in place of thymidine. Following labeling, cells are fixed and DNA denatured in one step by adding a FixDenat® denaturizing solution. After removing FixDenat, an anti-BrdU-peroxidase conjugated antibody is added, which binds to BrdU incorporated into newly-synthesized cellular DNA. Following antibody incubation, cells are washed 3 times with PBS and subjected to luminescent analysis. The reaction product is quantified by measuring light emission using a scanning multi-well luminometer (luminescence ELISA reader.)
(§4) Experimental Design—Tumor cells (Table 1) are grown to 70% confluency, trypsinized, counted and seeded in 96 well flat-bottom plates at final concentrations of 7.5×103-3×10^4 cells/well (Day 0); treatment with IIIg begins on Day 1 and continues for 68 hours (Table 2). Doses for both compounds range between […] and 100 μM. At the 68 hour time point, viable cell number is measured by BrdU assay as described above. Experiments are repeated at least twice at the same doses to determine inhibition of cell proliferation. Results from these studies are used to calculate an IC50 value (drug concentration that results in half-maximal response) for IIIg in each line.
(§5) For single studies, data from each experiment is collected and expressed as % Inhibition of Cell Proliferation (% ICP) using the following calculation.
(§6) % ICP=100%×[(1−(RLUtest/RLUvehicle)]
(§7) Where RLUtest is the relative light unit of the tested sample, and RLUvehicle is the relative light unit of the vehicle in which the drug is dissolved. An IC50 value is calculated from % ICP (PRISM® GraphPad software) using the formula:
(§8) y=min+(max−min)/(1+10^(Log(IC50)−x)×Hillslope)
(§9) Where (x) is the logarithm of agonist concentration, (y) is the response, and (min) and (max) are the variable lower and upper plateaus, respectively. The variable Hillslope characterizes the slope of the curve at its midpoint. The IC50 is the drug concentration for y halfway between min and max.

NIH: OVCAR-3 = experiment: BrdU chemiluminescent cell proliferation assay; type: cell-based, human; settings: for IC50: Homo sapiens, OVCAR-3, 72 h, 72 hour treatment
Description: as §1, §2, §3, §4, §5, §6, §7, §8, §9

PC-3 = experiment: BrdU chemiluminescent cell proliferation assay; type: cell-based, human; settings: for IC50: Homo sapiens, PC-3, 72 h, 72 hour treatment
Description: as §1, §2, §3, §4, §5, §6, §7, §8, §9

PARP1+/+A16 fibroblasts = experiment: Proliferation by BrdU incorporation; type: cell-based; settings: wildtype fibroblasts; single agent
Description: (§10) Proliferation of various tumor cell lines including uterine cancer Hela cells, lung carcinoma A549 cells, PARP1+/+A16 and PARP1−/− A12 fibroblasts, and several human pancreatic tumor cell lines, COLO357FG, MiaPaCa-2, AsPC-1, L3.6pl, and Panc28, is measured by BrdU incorporation. In some experiments, tumor cell proliferation is measured after 96 hours. The concentration of IIIg is titrated to show the effect of IIIg on tumor cell growth in vitro.
(§11) BrdU assay is well known in the art. Briefly, cells are cultured in the presence of the respective test substances in an appropriate 96-well MP at 37° C. for a certain period of time (1 to 5 days, depending on the individual assay system). Subsequently, BrdU is added to the cells and the cells are reincubated (usually 2-24 h). During this labeling period, the pyrimidine analogue BrdU is incorporated in place of thymidine into the DNA of proliferating cells. After removing the culture medium the cells are fixed and the DNA is denatured in one step by adding FixDenat (the denaturation of the DNA is necessary to improve the accessibility of the incorporated BrdU for detection by the antibody). The anti-BrdU-POD antibody is added and the antibody binds to the BrdU incorporated in newly synthesized, cellular DNA. The immune complexes are detected by the subsequent substrate reaction via chemiluminescent detection (based on Cell Proliferation ELISA, BrdU Chemiluminescence Protocol from Roche).
(§12) Experiments and analyses are performed according to Shaw G and Prowse DM, “Inhibition of androgen-independent prostate cancer cell growth is enhanced by combination therapy targeting Hedgehog and ErbB signaling” Cancer Cell Int. 2008 Mar. 18; 8:3.

PARP1−/− A12 fibroblasts = experiment: Proliferation by BrdU incorporation; type: cell-based; settings: PARP-1−/− fibroblasts; single agent
Description: as §10, §11, §12

[1] = test system: human pancreatic tumor cell lines, COLO357FG, MiaPaCa-2, AsPC-1, L3.6pl, and Panc28; experiment: Proliferation by BrdU incorporation; type: cell-based; settings: single agent
Description: as §10, §11, §12

[2] = mean of Exp1 and Exp2, read-out: Mean IC50

O=c1ccc2c(I)c([N+](=O)[O-])ccc2o1 [IIIg, 5-iodo-6-nitro-benzopyrone]
IC50 (MDA-MB-231; Exp1, read-out: IC50): 24 µM
IC50 (MDA-MB-231; Exp2, read-out: IC50): 24.3 µM
IC50 (MDA-MB-231; [2]): 24.2 µM
Mean Maximum % Response (MDA-MB-231; Max Concentration 100 μM): 99%
IC50 (NIH: OVCAR-3; Exp1, read-out: IC50): 30.4 µM
IC50 (NIH: OVCAR-3; Exp2, read-out: IC50): 29.6 µM
IC50 (NIH: OVCAR-3; [2]): 30 µM
Mean Maximum % Response (NIH: OVCAR-3; Max Concentration 100 μM): 98%
IC50 (PC-3; Exp1, read-out: IC50): 22 µM
IC50 (PC-3; Exp2, read-out: IC50): 25.3 µM
IC50 (PC-3; [2]): 23.7 µM
Mean Maximum % Response (PC-3; Max Concentration 100 μM): 100%
Cell growth (PARP1+/+A16 fibroblasts): selectively inhibits the growth of wildtype
Cell growth (PARP1−/− A12 fibroblasts): not PARP-1−/− fibroblasts
Cell growth [1]: significantly inhibits cell growth
